Test results taken from PubChem BioAssay AID1919009 (Molecular Pharmacology Branch, DTP, NCI, 2023).

Tested on: K24384-001-R-PDC complex spheroid growth
Test: Anticancer human tumor K24384-001-R-PDC patient-derived pancreatic adenocarcinoma cell line growth inhibition [AhR]
Conditions: for IC50: curve of first compound; for viability, T/C: stronger effect = lower value
How it was run: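 Spheroids combined tumor cells with HUVEC endothelial cells and human MSCs as stroma. AhR antagonists were paired with standard or investigational drugs, each dosed in half-log steps down from near clinical Cmax, or from 10 microM where Cmax was unknown.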

[1] = second compound 0.1 µM, first compound 0.0316 µM
[2] = second compound 0.1 µM, first compound 0.1 µM
[3] = second compound 0.1 µM, first compound 0.316 µM
[4] = second compound 0.1 µM, first compound 1 µM
[5] = second compound 0.1 µM, first compound 3.16 µM
[6] = second compound 0.1 µM, first compound 10 µM
[7] = second compound 0.316 µM, first compound 0.0316 µM
[8] = second compound 0.316 µM, first compound 0.1 µM
[9] = second compound 0.316 µM, first compound 0.316 µM
[10] = second compound 0.316 µM, first compound 1 µM
[11] = second compound 0.316 µM, first compound 3.16 µM
[12] = second compound 0.316 µM, first compound 10 µM
[13] = second compound 1 µM, first compound 0.0316 µM
[14] = second compound 1 µM, first compound 0.1 µM
[15] = second compound 1 µM, first compound 0.316 µM
[16] = second compound 1 µM, first compound 1 µM
[17] = second compound 1 µM, first compound 3.16 µM
[18] = second compound 1 µM, first compound 10 µM
[19] = second compound 3.16 µM, first compound 0.0316 µM
[20] = second compound 3.16 µM, first compound 0.1 µM
[21] = second compound 3.16 µM, first compound 0.316 µM
[22] = second compound 3.16 µM, first compound 1 µM
[23] = second compound 3.16 µM, first compound 3.16 µM
[24] = second compound 3.16 µM, first compound 10 µM
[25] = second compound 10 µM, first compound 0.0316 µM
[26] = second compound 10 µM, first compound 0.1 µM
[27] = second compound 10 µM, first compound 0.316 µM
[28] = second compound 10 µM, first compound 1 µM
[29] = second compound 10 µM, first compound 3.16 µM
[30] = second compound 10 µM, first compound 10 µM
[31] = second compound 0.1 µM, first compound 0.00316 µM
[32] = second compound 0.1 µM, first compound 0.01 µM
[33] = second compound 0.316 µM, first compound 0.00316 µM
[34] = second compound 0.316 µM, first compound 0.01 µM
[35] = second compound 1 µM, first compound 0.00316 µM
[36] = second compound 1 µM, first compound 0.01 µM
[37] = second compound 3.16 µM, first compound 0.00316 µM
[38] = second compound 3.16 µM, first compound 0.01 µM
[39] = second compound 10 µM, first compound 0.00316 µM
[40] = second compound 10 µM, first compound 0.01 µM
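For viability, T/C in this document: percent of DMSO vehicle-treated spheroid viability set as 100%.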

SMILES | IC50 (second compound 0.1 µM) [µM] | IC50 (second compound 0.316 µM) [µM] | IC50 (second compound 1 µM) [µM] | IC50 (second compound 3.16 µM) [µM] | IC50 (second compound 10 µM) [µM] | viability, T/C [1] [%] | viability, T/C [2] [%] | viability, T/C [3] [%] | viability, T/C [4] [%] | viability, T/C [7] [%] | viability, T/C [8] [%] | viability, T/C [9] [%] | viability, T/C [10] [%] | viability, T/C [13] [%] | viability, T/C [14] [%] | viability, T/C [15] [%] | viability, T/C [19] [%] | viability, T/C [20] [%] | viability, T/C [25] [%] | viability, T/C [26] [%] | also measured
CC(C)c1c(-c2ccccc2)nc2c(C#N)c[nH]n2c1=O + CC(CO)NC(=O)c1cc(-c2ccc(Cl)cc2)nn(-c2cnn(C)c2)c1=O | > 10 | > 10 | > 10 | > 10 | > 10 | 118 | 122 | 76.2 | 99.7 | 116 | 107 | 89.4 | 96.8 | 92.7 | 80 | 94.2 | 63.2 | 75.1 | 77.5 | 74.4 | viability, T/C [5]: 92.2%; viability, T/C [6]: 80.8%; viability, T/C [11]: 73%; viability, T/C [12]: 78.3%; viability, T/C [16]: 64.7%; viability, T/C [17]: 72.1%; viability, T/C [18]: 72.8%; viability, T/C [21]: 79.8%; viability, T/C [22]: 64%; viability, T/C [23]: 68.7%; viability, T/C [24]: 63.5%; viability, T/C [27]: 62.5%; viability, T/C [28]: 60.6%; viability, T/C [29]: 52.3%; viability, T/C [30]: 61.6%
COc1ccc([C@@H](O)c2cc(-c3ncnc4cc(N5CCOCC5)ccc34)c(F)cc2Cl)nn1 + CC(CO)NC(=O)c1cc(-c2ccc(Cl)cc2)nn(-c2cnn(C)c2)c1=O | 7.26 | 3.9 | 2.83 | 2.92 | 1.48 | 90.1 | 82.7 | 97.6 | 75.7 | 103 | 99.5 | 85.2 | 67.6 | 86.6 | 90 | 81.1 | 74.5 | 69.7 | 71.3 | 75.2 | viability, T/C [5]: 69.2%; viability, T/C [6]: 43%; viability, T/C [11]: 55.1%; viability, T/C [12]: 37%; viability, T/C [16]: 66.3%; viability, T/C [17]: 49%; viability, T/C [18]: 35.8%; viability, T/C [21]: 80.4%; viability, T/C [22]: 66%; viability, T/C [23]: 49.2%; viability, T/C [24]: 33.8%; viability, T/C [27]: 68.2%; viability, T/C [28]: 52.1%; viability, T/C [29]: 42.5%; viability, T/C [30]: 28.9%
CC[C@@]1(O)C(=O)OCc2c1cc1n(c2=O)Cc2cc3c(CN(C)C)c(O)ccc3nc2-1 + Cc1ccccc1N=Nc1ccc(NC(=O)c2ccnn2C)c(C)c1 | 0.0281 | 0.0245 | 0.0284 | 0.0196 | 0.0307 | 48.5 | 44.9 | – | – | 46.9 | 39.6 | – | – | 50.2 | 38.4 | – | 38.3 | 39.1 | 51.5 | 47.4 | viability, T/C (second compound 0.1 µM, first compound 0.000316 µM): 93.4%; viability, T/C (second compound 0.1 µM, first compound 0.001 µM): 96.2%; viability, T/C [31]: 95.4%; viability, T/C [32]: 72.2%; viability, T/C (second compound 0.316 µM, first compound 0.000316 µM): 97.3%; viability, T/C (second compound 0.316 µM, first compound 0.001 µM): 90.7%; viability, T/C [33]: 98.6%; viability, T/C [34]: 70.5%; viability, T/C (second compound 1 µM, first compound 0.000316 µM): 101%; viability, T/C (second compound 1 µM, first compound 0.001 µM): 94.1%; viability, T/C [35]: 94.7%; viability, T/C [36]: 67.8%; viability, T/C (second compound 3.16 µM, first compound 0.000316 µM): 87.3%; viability, T/C (second compound 3.16 µM, first compound 0.001 µM): 99.8%; viability, T/C [37]: 92.5%; viability, T/C [38]: 65.8%; viability, T/C (second compound 10 µM, first compound 0.000316 µM): 111%; viability, T/C (second compound 10 µM, first compound 0.001 µM): 101%; viability, T/C [39]: 109%; viability, T/C [40]: 68.7%
Nc1ncn(C2CC(O)C(CO)O2)c(=O)n1 (stereo not given) + Cc1ccccc1N=Nc1ccc(NC(=O)c2ccnn2C)c(C)c1 | > 1 | > 1 | > 1 | > 1 | > 1 | 90.2 | 79.4 | 87.5 | 68.8 | 100 | 103 | 80.6 | 71.4 | 90 | 89.5 | 73.2 | 83.5 | 68.9 | 97.7 | 79 | viability, T/C [31]: 108%; viability, T/C [32]: 114%; viability, T/C [33]: 102%; viability, T/C [34]: 112%; viability, T/C [35]: 103%; viability, T/C [36]: 99.2%; viability, T/C [16]: 66.9%; viability, T/C [37]: 89.4%; viability, T/C [38]: 85.7%; viability, T/C [21]: 64.9%; viability, T/C [22]: 57.5%; viability, T/C [39]: 93.6%; viability, T/C [40]: 95.1%; viability, T/C [27]: 66.7%; viability, T/C [28]: 58.1%

Further molecules by falling IC50 (second compound 0.1 µM), results first:

IC50 (second compound 0.1 µM) [µM] | IC50 (second compound 0.316 µM) [µM] | IC50 (second compound 1 µM) [µM] | IC50 (second compound 3.16 µM) [µM] | IC50 (second compound 10 µM) [µM] | SMILES | viability, T/C [1] [%] | viability, T/C [2] [%] | viability, T/C [3] [%] | viability, T/C [4] [%] | viability, T/C [7] [%] | viability, T/C [8] [%] | viability, T/C [9] [%] | viability, T/C [10] [%] | viability, T/C [13] [%] | viability, T/C [14] [%] | viability, T/C [15] [%] | viability, T/C [19] [%] | viability, T/C [20] [%] | viability, T/C [25] [%] | viability, T/C [26] [%] | also measured
0.955 | 1.09 | 0.83 | 0.969 | 2.73 | COc1cc(C2c3cc4c(cc3C(OC3OC5COC(C)OC5C(O)C3O)C3COC(=O)C23)OCO4)cc(OC)c1O (stereo not given) + Cc1ccccc1N=Nc1ccc(NC(=O)c2ccnn2C)c(C)c1 | 97.7 | 96.3 | 77.9 | 49.6 | 104 | 92.5 | 66.3 | 55.2 | 102 | 101 | 83.1 | 78.3 | 89.1 | 102 | 98.5 | viability, T/C [5]: 35.2%; viability, T/C [6]: 35.6%; viability, T/C [11]: 36.5%; viability, T/C [12]: 38.7%; viability, T/C [16]: 43.6%; viability, T/C [17]: 33.9%; viability, T/C [18]: 31.7%; viability, T/C [21]: 64.4%; viability, T/C [22]: 51.6%; viability, T/C [23]: 39.7%; viability, T/C [24]: 35.5%; viability, T/C [27]: 88.6%; viability, T/C [28]: 63.9%; viability, T/C [29]: 46.2%; viability, T/C [30]: 46.4%
0.0689 | 0.0547 | < 0.0316 | < 0.0316 | 0.0504 | COc1cccc2c1C(=O)c1c(O)c3c(c(O)c1C2=O)CC(O)(C(=O)CO)CC3OC1CC(N)C(O)C(C)O1 (stereo not given) + Cc1ccccc1N=Nc1ccc(NC(=O)c2ccnn2C)c(C)c1 | 57.9 | 45.7 | 22.5 | 7.05 | 53.7 | 46 | 19 | 8.11 | 42 | 42 | 12.8 | 47.6 | 40.1 | 55.9 | 41.3 | viability, T/C [5]: 3.16%; viability, T/C [6]: 7.56%; viability, T/C [11]: 2.84%; viability, T/C [12]: 8.04%; viability, T/C [16]: 7.59%; viability, T/C [17]: 2.46%; viability, T/C [18]: 8.88%; viability, T/C [21]: 14.3%; viability, T/C [22]: 2.98%; viability, T/C [23]: 6.7%; viability, T/C [24]: 6.51%; viability, T/C [27]: 9.04%; viability, T/C [28]: 8.14%; viability, T/C [29]: 3.61%; viability, T/C [30]: 9.36%
